Experimental findings from article PMC12472753, “Fused Imidazotriazole-Based Therapeutics: A Multidisciplinary Study Against Diabetes-Linked Enzymes Alpha-Amylase and Alpha-Glucosidase Using In Vitro and In Silico Methods” (Pharmaceuticals, 2025) are described below.

One assay concerns the target T1, α-amylase (Sus scrofa, UniProt P00690).
T1 sequence (P00690 16-511): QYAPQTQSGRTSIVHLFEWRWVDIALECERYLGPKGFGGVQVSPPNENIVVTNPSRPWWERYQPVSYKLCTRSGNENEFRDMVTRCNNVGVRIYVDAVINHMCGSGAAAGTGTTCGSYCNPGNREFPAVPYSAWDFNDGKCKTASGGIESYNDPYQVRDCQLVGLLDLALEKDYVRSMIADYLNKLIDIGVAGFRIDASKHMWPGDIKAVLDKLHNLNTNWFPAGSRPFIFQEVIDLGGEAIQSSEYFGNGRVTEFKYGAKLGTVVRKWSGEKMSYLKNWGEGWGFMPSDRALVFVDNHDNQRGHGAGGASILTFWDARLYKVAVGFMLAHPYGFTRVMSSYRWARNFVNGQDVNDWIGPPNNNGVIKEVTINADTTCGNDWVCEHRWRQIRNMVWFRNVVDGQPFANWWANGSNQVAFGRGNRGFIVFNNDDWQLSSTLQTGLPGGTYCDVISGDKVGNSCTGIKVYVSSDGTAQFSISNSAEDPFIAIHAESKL
The experiment in a line: Alpha-amylase inhibition assay (DNS method). The class given is biochemical. The following applies: in vitro, triplicate; read-out: IC50 = α-Amylase µM ± SEM.

Another assay concerns the target α-glucosidase (Saccharomyces cerevisiae, UniProt P53341). The format is biochemical. The following applies: in vitro, triplicate; read-out: IC50 = α-Glucosidase µM ± SEM.

Chain of α-glucosidase (P53341 whole entry): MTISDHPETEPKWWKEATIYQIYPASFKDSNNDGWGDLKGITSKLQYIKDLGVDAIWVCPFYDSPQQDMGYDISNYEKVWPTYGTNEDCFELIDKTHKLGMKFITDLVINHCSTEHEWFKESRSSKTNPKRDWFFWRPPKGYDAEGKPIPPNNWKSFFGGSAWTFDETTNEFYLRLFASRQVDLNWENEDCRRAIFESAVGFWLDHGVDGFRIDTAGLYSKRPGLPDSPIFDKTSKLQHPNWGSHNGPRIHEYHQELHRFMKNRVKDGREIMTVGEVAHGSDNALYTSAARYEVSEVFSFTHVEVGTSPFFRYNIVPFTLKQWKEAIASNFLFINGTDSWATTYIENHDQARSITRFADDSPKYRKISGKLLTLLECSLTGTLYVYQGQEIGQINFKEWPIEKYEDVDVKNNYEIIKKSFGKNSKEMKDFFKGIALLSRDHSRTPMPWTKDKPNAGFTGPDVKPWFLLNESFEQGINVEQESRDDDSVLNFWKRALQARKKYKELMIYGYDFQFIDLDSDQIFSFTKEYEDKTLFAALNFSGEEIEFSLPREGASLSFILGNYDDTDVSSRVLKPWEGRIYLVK
Method for α-amylase: The in vitro alpha-amylase study was conducted and the enzyme was sourced from Merck (Sigma-Aldrich, Hamburg, Germany). The inhibitory activity of the synthesized compounds against α-amylase was evaluated using a standard protocol with slight modifications [44]. In brief, 250 µL of the test compound (prepared at varying concentrations, 50–250 µg/mL) was mixed with 250 µL of starch solution [1% (w/v)] and 250 µL of α-amylase solution (1 U/mL). The reaction mixture was incubated at 20 °C for 3 min, after which enzymatic activity was terminated by the addition of 500 µL of dinitrosalicylic acid (DNS) color reagent. The mixture was then heated in a boiling water bath at 85 °C for 15 min, cooled to room temperature for 5 min, and diluted with 4.5 mL of distilled water to a final volume of 6.0 mL. Absorbance was measured at 540 nm using a UV-visible spectrophotometer. […] The percentage inhibition was calculated and all experiments were conducted in triplicate.
Method for α-glucosidase: The in vitro alpha-glucosidase study was conducted and the enzyme was sourced from Merck (Sigma-Aldrich). The α-glucosidase inhibitory activity was determined following a standard microplate-based method [45]. In each well of a 96-well plate, 35 µL of phosphate buffer (pH 6.8), 31 µL of the test compound solution (50–250 µg/mL), and 18 µL of p-nitrophenyl-α-D-glucopyranoside (pNPG, substrate) were added and pre-incubated at 37 °C for 5 min. The reaction was initiated by the addition of 16 µL of α-glucosidase (0.15 U/mL in phosphate buffer), resulting in a total assay volume of 100 µL. After incubation, the reaction was terminated by adding 100 µL of sodium carbonate (200 mM), and absorbance was recorded at 405 nm using a microplate reader. […] The percentage inhibition was calculated according to the following equation: % inhibition=(Abs control − Abs sample)/Abs control×100
All assays were performed in triplicate to ensure reproducibility.

What is called IC50 is the concentration at which inhibition is half-maximal. Turning to “5-(2,4-Dihydroxy-5-methylphenyl)-6H-imidazo{1,2-b]{1,2,4]triazole-2-carboxylic acid [Compound 7]”, the half-maximal inhibitory concentration (IC50) at α-amylase was 7.1 ± 0.3 µM; on α-glucosidase, 7.7 ± 0.2 µM.
